Data: ChEMBL document CHEMBL1201862, “PubChem BioAssay data set” (2004)
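Values below derive from 48-hour exposures of cells grown in 96-well plates, with endpoints linearly interpolated between the two concentrations bracketing the appropriate inhibition level. The concentration for 50% growth inhibition is given as GI50.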 Calls of active or inactive are those of the source. Cut-off read from the data, not from the text of the source: active = GI50 up to about 1.1 µM and inactive = higher.

Key:
Experiment in all cases: inhibition of tumour cell growth, NCI panel, 48 h
[1] = tested on: K562
[2] = tested on: SR
[3] = tested on: EKVX
[4] = tested on: SK-MEL-2
[5] = tested on: Malme-3M
[6] = tested on: OVCAR-4
[7] = tested on: NCI/ADR-RES
[8] = tested on: OVCAR-8
[9] = tested on: SNB-75
[10] = tested on: COLO 205
[11] = tested on: MOLT-4
[12] = tested on: HCT-15
[13] = tested on: CCRF-CEM
[14] = tested on: DU-145
[15] = tested on: SK-MEL-28
[16] = tested on: NCI-H23
[17] = tested on: OVCAR-3
[18] = tested on: LOX IMVI
[19] = tested on: M14

Compound	GI50 [1]	GI50 [2]	GI50 [3]	GI50 [4]	GI50 [5]	GI50 [6]	GI50 [7]	GI50 [8]	GI50 [9]	GI50 [10]	GI50 [11]	GI50 [12]	GI50 [13]	GI50 [14]	GI50 [15]	GI50 [16]	GI50 [17]	GI50 [18]	GI50 [19]
C[C@]12CC[C@H](O)CC1=CC[C@@H]1[C@@H]2CC[C@]2(C)C(=O)[C@@H](N3CCOCC3)C[C@@H]12	89.3 µM (inactive)	44.2 µM (inactive)	40.6 µM (inactive)	> 100 µM (inactive)	> 100 µM (inactive)	> 100 µM (inactive)	61.2 µM (inactive)	47.1 µM (inactive)	30.6 µM (inactive)	> 100 µM (inactive)	55.3 µM (inactive)	> 100 µM	99.8 µM (inactive)	> 100 µM (inactive)	> 100 µM (inactive)	57.8 µM (inactive)	> 100 µM (inactive)	> 100 µM (inactive)	78.5 µM (inactive)
CCCCCCCCCCC/C=C(/C(=O)CCCO[Si](C)(C)C(C)(C)C)C(=O)OC	> 100 µM (inactive)	> 100 µM (inactive)	> 100 µM (inactive)	> 100 µM (inactive)	> 100 µM (inactive)	> 100 µM (inactive)	> 100 µM (inactive)	> 100 µM (inactive)	> 100 µM (inactive)	> 100 µM (inactive)	> 100 µM (inactive)	> 100 µM	> 100 µM (inactive)	> 100 µM (inactive)	> 100 µM (inactive)	> 100 µM (inactive)	> 100 µM (inactive)	> 100 µM (inactive)	> 100 µM (inactive)
COc1cc(S(=O)(=O)Nc2ccc(-c3csc(/N=C\C=C\c4ccccc4)n3)cc2)ccc1Cl	31.2 µM (inactive)	32.5 µM (inactive)	36.9 µM (inactive)	26 µM (inactive)	37.4 µM (inactive)	28.5 µM (inactive)	59 µM (inactive)	34.8 µM (inactive)	> 100 µM (inactive)	36.7 µM (inactive)	38.1 µM (inactive)	50 µM	17.5 µM (inactive)	45.5 µM (inactive)	> 100 µM (inactive)	30.9 µM (inactive)	> 100 µM (inactive)	29.6 µM (inactive)	29.9 µM (inactive)
COc1ccc2nc3cc(Cl)ccc3c(Nc3ccc(O)c(CN4CCN(C)CC4)c3)c2c1	1.59 µM (inactive)	0.676 µM (active)	1.74 µM (inactive)	1.81 µM (inactive)	1.79 µM (inactive)	1.65 µM (inactive)	2.08 µM (inactive)	1.79 µM (inactive)	1.62 µM (inactive)	1.63 µM (inactive)	1.93 µM (inactive)	2.31 µM	0.276 µM (active)	1.9 µM (inactive)	1.92 µM (inactive)	1.89 µM (inactive)	1.92 µM (inactive)	1.71 µM (inactive)	1.99 µM (inactive)
CCOc1cc2c(cc1O)C=C[C@@H]1[C@@H]2CC[C@]2(C)[C@@H](O)CC[C@@H]12	1.8 µM (inactive)	0.472 µM (active)	4.79 µM (inactive)	4.38 µM (inactive)	1.5 µM (inactive)	24.9 µM (inactive)	1.37 µM (inactive)	4.29 µM (inactive)	3.3 µM (inactive)	21.1 µM (inactive)	2.91 µM (inactive)	0.562 µM	3.15 µM (inactive)	1.53 µM (inactive)	22.3 µM (inactive)	3.85 µM (inactive)	1.87 µM (inactive)	3.87 µM (inactive)	2.8 µM (inactive)
CN(C)Cc1cc(C(C)(C)C)cc(C2CCCCC2)c1O	12.2 µM (inactive)	12.3 µM (inactive)	11.9 µM (inactive)	18.3 µM (inactive)	2.15 µM (inactive)	12.1 µM (inactive)	19.6 µM (inactive)	13 µM (inactive)	10.3 µM (inactive)	14.2 µM (inactive)	10.8 µM (inactive)	15.3 µM	13.5 µM (inactive)	14.7 µM (inactive)	13.2 µM (inactive)	24.9 µM (inactive)	14.2 µM (inactive)	15.2 µM (inactive)	24.6 µM (inactive)
COC(=O)c1ccccc1CC1Cc2cc3c(cc2C1)CCC3	23 µM (inactive)	5.58 µM (inactive)	45.5 µM (inactive)	19.4 µM (inactive)	21.3 µM (inactive)	39.5 µM (inactive)	> 100 µM (inactive)	56.8 µM (inactive)	26.7 µM (inactive)	23.8 µM (inactive)	18.5 µM (inactive)	48.8 µM	20.4 µM (inactive)	40.5 µM (inactive)	29.3 µM (inactive)	38.5 µM (inactive)	32.7 µM (inactive)	24 µM (inactive)	38.8 µM (inactive)
COC(=O)Cc1c(-c2[nH]c3ccccc3c2CC(=O)OC)[nH]c2ccccc12	27.7 µM (inactive)	> 55 µM (inactive)	39.4 µM (inactive)	> 57.7 µM (inactive)	> 55.6 µM (inactive)	> 49.9 µM (inactive)	> 57.3 µM (inactive)	32.2 µM (inactive)	> 57.4 µM (inactive)	> 53 µM (inactive)	> 47.4 µM (inactive)	> 50.7 µM	> 25.2 µM (inactive)	> 53 µM (inactive)	> 55 µM (inactive)	> 55.5 µM (inactive)	1.41 µM (inactive)	> 58.6 µM (inactive)	> 52.4 µM (inactive)
c1ccc(NNN2NC(c3ccccc3)C2c2ccccc2)cc1 (centres undefined)	91.8 µM (inactive)	> 100 µM (inactive)	> 100 µM (inactive)	> 100 µM (inactive)	28.9 µM (inactive)	86.1 µM (inactive)	97.3 µM (inactive)	> 100 µM (inactive)	> 100 µM (inactive)	> 100 µM (inactive)	55 µM (inactive)	> 100 µM	59.6 µM (inactive)	> 100 µM (inactive)	> 100 µM (inactive)	92.3 µM (inactive)	> 100 µM (inactive)	> 100 µM (inactive)	> 100 µM (inactive)
CCN(CC)CCN(C)CCc1ccc(Br)cc1	25.7 µM (inactive)	> 100 µM (inactive)	> 100 µM (inactive)	> 100 µM (inactive)	> 100 µM (inactive)	97.3 µM (inactive)	79.4 µM (inactive)	> 100 µM (inactive)	46.7 µM (inactive)	17.4 µM (inactive)	53.6 µM (inactive)	61.1 µM	51.8 µM (inactive)	> 100 µM (inactive)	41.7 µM (inactive)	> 100 µM (inactive)	> 100 µM (inactive)	42.9 µM (inactive)	17.2 µM (inactive)
N=C(N)SCc1ccc2c(c1)Sc1ccccc1O2	6.03 µM (inactive)	5.78 µM (inactive)	11.6 µM (inactive)	5.12 µM (inactive)	11.1 µM (inactive)	6.87 µM (inactive)	6.65 µM (inactive)	10.6 µM (inactive)	5.65 µM (inactive)	2.36 µM (inactive)	7.71 µM (inactive)	3.33 µM	6.78 µM (inactive)	8.69 µM (inactive)	13.6 µM (inactive)	6.5 µM (inactive)	4.69 µM (inactive)	6 µM (inactive)	2.16 µM (inactive)
